{
  "source": "ChEMBL document CHEMBL1146295",
  "about": "“An efficient synthesis of quinoxaline derivatives from 4-chloro-4-deoxy-alpha-D-galactose and their cytotoxic activities” (Bioorg Med Chem Lett, 2007)",
  "data": [
    {"assay": "Cytotoxicity against human Ec9706 cells after 48 hrs by MTT assay", "format": "functional, cell-based", "conditions": "EC9706, 48 h", "units": {"IC50": "µg/mL"}, "values": [
      {"smiles": "COC(OC)C1OC(C)(C)OC1Cc1cnc2ccc([N+](=O)[O-])cc2n1", "note": "(stereo unspecified)", "IC50": 69.2},
      {"smiles": "COC(OC)C1OC(C)(C)OC1Cc1cnc2cc(C(=O)c3ccccc3)ccc2n1", "note": "(stereo unspecified)", "IC50": 80},
      {"smiles": "COC(OC)C1OC(C)(C)OC1Cc1cnc2ccc(C(=O)c3ccccc3)cc2n1", "note": "(stereo unspecified)", "IC50": 80},
      {"smiles": "COC(OC)C1OC(C)(C)OC1Cc1cnc2ccccc2n1", "note": "(stereo unspecified)", "IC50": "> 100"},
      {"smiles": "COC(OC)C1OC(C)(C)OC1Cc1cnc2cc(Cl)ccc2n1", "note": "(stereo unspecified)", "IC50": 30.5},
      {"smiles": "COC(OC)C1OC(C)(C)OC1Cc1cnc2ccc(Cl)cc2n1", "note": "(stereo unspecified)", "IC50": 30.5}
    ]}
  ]
}
